A short description of series [1]: Powder dissolution testing in pH 6.8 buffer, USP Type II Paddle apparatus. It counts as physicochemical. Conditions: 60 minutes.
Series [2] in a line: Physical and chemical stability under accelerated storage conditions. It counts as physicochemical. How it is done:
The glass transition temperature of the amorphous form of Compound (1) sodium salt is >200° C., which is quite atypical for pharmaceutical active materials and can be considered an unexpected finding.

Series [3] can be described thus: Solubility of Compound (1) in physiological pH range; thermodynamic solubility. To be noted: aqueous buffer, thermodynamic from solid; physiological pH range of 2-6.8. It counts as physicochemical. How it is done:
Doses of Compound (1) up to 400 to 600 mg per dose may be required to be delivered to obtain exposures necessary for sufficient efficacy in vivo. Based on thermodynamic solubility of Compound (1), solubility of 0.005-0.01 mg/ml is estimated for Compound (1) sodium salt.

In series [4] the target is HCV NS5B RNA-dependent RNA polymerase (Hepatitis C virus genotype 1a, UniProt P27958). To be noted: cited from earlier work.

A value given as a limit tells only on which side of the number the result lay.

These results are taken from patent publication US8598183B2, “Solid state forms of a potent HCV inhibitor” (Boehringer Ingelheim International GmbH, priority 2010, dated 2013).

As a reminder, the solubility is the concentration that dissolves in the medium under given conditions. A low value points to a poorly soluble substance.

Chain of HCV NS5B RNA-dependent RNA polymerase (P27958 2421-3011): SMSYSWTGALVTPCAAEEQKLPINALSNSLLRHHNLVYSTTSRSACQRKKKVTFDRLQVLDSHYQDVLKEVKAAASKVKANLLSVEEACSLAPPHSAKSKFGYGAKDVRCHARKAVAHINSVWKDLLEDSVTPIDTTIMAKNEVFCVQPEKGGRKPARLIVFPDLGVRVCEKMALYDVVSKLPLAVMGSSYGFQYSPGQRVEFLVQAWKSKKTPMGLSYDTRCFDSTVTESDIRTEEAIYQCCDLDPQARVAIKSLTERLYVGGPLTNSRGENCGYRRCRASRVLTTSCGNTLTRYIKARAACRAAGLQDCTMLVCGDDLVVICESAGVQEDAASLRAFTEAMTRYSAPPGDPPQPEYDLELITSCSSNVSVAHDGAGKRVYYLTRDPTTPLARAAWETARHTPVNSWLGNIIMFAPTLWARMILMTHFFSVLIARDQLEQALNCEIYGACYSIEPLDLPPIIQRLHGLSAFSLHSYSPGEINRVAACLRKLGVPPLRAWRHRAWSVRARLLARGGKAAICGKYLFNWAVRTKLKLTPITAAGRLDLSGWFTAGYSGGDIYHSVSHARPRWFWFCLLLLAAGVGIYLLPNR

In the case of `Cn1c(C2(NC(=O)c3ccc4c(C5CCCC5)c(-c5ncc(Br)cn5)n(C)c4c3)CCC2)nc2ccc(/C=C/C(=O)[O-])cc21.[Na+]` [amorphous Compound (1) sodium salt], the “% dissolved (kinetic dissolution)” value in series [1] was “about 35%”. The “physical and chemical stability” value in series [2] was “acceptable physical and chemical stability”.

Compound `Cn1c(C2(NC(=O)c3ccc4c(C5CCCC5)c(-c5ncc(Br)cn5)n(C)c4c3)CCC2)nc2ccc(/C=C/C(=O)O)cc21` [Compound (1), (E)-3-[2-(1-{[2-(5-Bromo-pyrimidin-2-yl)-3-cyclopentyl-1-methyl-1H-indole-6-carbonyl]-amino}-cyclobutyl)-3-methyl-3H-benzimidazol-5-yl]-acrylic acid] showed a solubility in series [3] of less than 0.2 µg/mL. In series [4], the “inhibition of HCV NS5B RNA-dependent RNA polymerase” value was “selective and potent inhibitor”.
